From article PMC4992173, “Divergent synthesis and identification of the cellular targets of deoxyelephantopins” (Nature Communications, 2016) come the findings set out here.

Series [1] addresses T1, PPARγ C176A (Homo sapiens, UniProt P37231, C176A).
T1 construct: host or cells: 293T
The series can be described thus: Gel-based competitive IC50 determination in 293T lysates: C176A PPARγ. The series is classed as binding. To be noted: C176A PPARγ expressed in 293T cells, lysate, 1 h, then 10 μM 24c-Cy3. The source says: (§1) Finally, we sought to understand the molecular basis for PPARγ binding by the synthetic analogues of deoxyelephantopin through identification of the precise covalently modified amino acid site. There is literature precedent for oxidized fatty acids containing an α,β-unsaturated ketone to form a covalent bond with a cysteine in the ligand-binding site of PPARγ[53]. More recently, synthetic ligands binding reversibly to a distinct site were identified. […] Bearing in mind that the structurally simplified, and thus less prone to MS/MS fragmentation, probe 23c binds PPARγ as efficiently as 24c (Supplementary Fig. 13), we treated the recombinant nuclear receptor with the former compound, digested the protein and analysed the resulting peptides by LC–MS/MS. […]
(§2) Supplementary figure 21: Top: Fluorescence gels corresponding to the IC50 curves presented in the main text Figure 8b. γ fluorescence signal in percentage after 19a treatment. […]
(§3) Biological materials. […] Protein concentration was determined using the Bradford assay (Bio-Rad).
(§4) Cell culture and preparation of lysates. […] Cells were lysed by sonication to form cell lysates and protein concentration was determined using the Bradford […]

Series [2] has as its target T2, PPARγ D174A (Homo sapiens, UniProt P37231, D174A).
T2 construct: host or cells: 293T
Briefly: Gel-based competitive IC50 determination in 293T lysates: D174A PPARγ. Particulars: D174A PPARγ expressed in 293T cells, lysate, 1 h, then 10 μM 24c-Cy3. The series is classed as binding.
Description: as §1, §2, §3, §4

Series [3] deals with four different cancer cell lines (MCF7, Caco-2, HeLa, MDA-MB-231). The series can be described thus: Cell viability (EC50) in four different cancer cell lines, 3 days, nuclei count. To be noted: all four tested cell lines. In kind it is cell-based. The protocol: We began our biological investigations by assaying the cytotoxicity of natural deoxyelephantopin (DEP) and its unnatural analogues in four different cancer cell lines (Fig. 5a, Supplementary Figs 6–8).
Figure 5 Assessing the cytotoxicity of deoxyelephantopin (DEP) and analogues. (a) Cell viability measurements in four different cancer cell lines. Cells were treated with compounds for 3 days, the nuclei were stained with DAPI and counted (EC50 values±s.d. shown; n=3). **P<0.005 and ***P<0.0005 by two-sided Student's t-test. (b) Detection of caspase activation and apoptosis in MCF7 cells using FITC-VAD-FMK fluorescent probe (top) or Annexin V staining (bottom). The cells were treated with 1 μM staurosporine (positive control) or 20 μM deoxyelephantopin for 8 h. Confocal microscopy images are shown. EC50, effector concentration for half-maximum response. Scale bars, 30μm. […]
as §3, §4
’ cells/mL and HeLa: 1 ’ cells/mL) in a 96-well plate and allowed to attach overnight. […] Cells were imaged using a SpectraMax i3 plate reader equipped with a SpectraMax MiniMax imaging cytometer (Molecular Devices). […]
Caspase activity labeling for fluorescence cell imaging. […]

T2 sequence (P37231 whole entry D174A): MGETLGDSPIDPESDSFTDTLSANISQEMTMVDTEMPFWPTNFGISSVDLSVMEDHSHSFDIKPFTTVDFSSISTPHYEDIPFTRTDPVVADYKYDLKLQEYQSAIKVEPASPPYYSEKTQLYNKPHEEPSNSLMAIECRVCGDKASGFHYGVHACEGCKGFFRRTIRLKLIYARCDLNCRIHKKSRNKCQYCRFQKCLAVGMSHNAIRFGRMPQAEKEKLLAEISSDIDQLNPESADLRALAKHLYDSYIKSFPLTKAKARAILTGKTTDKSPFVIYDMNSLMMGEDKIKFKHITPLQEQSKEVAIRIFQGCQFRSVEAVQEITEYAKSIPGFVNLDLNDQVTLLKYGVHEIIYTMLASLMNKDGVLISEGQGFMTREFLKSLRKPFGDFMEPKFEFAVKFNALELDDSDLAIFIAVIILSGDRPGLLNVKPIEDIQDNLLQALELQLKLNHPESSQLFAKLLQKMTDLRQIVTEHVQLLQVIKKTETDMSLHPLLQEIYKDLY
T1 sequence (P37231 whole entry C176A): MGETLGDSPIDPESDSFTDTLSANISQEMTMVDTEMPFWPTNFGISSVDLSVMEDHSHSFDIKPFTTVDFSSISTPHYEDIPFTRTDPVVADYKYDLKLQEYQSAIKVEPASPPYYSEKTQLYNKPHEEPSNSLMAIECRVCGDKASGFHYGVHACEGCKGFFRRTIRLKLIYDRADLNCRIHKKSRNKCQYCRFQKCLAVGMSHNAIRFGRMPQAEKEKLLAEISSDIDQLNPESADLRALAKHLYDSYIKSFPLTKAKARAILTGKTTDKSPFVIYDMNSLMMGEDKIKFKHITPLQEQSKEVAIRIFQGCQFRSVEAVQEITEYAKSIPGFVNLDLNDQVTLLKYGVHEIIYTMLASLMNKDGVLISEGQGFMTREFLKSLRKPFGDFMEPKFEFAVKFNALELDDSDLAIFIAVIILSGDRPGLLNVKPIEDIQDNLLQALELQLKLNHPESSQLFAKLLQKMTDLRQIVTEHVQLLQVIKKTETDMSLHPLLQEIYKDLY

The term IC50 denotes the concentration at which inhibition is half-maximal. Lower therefore signals greater potency in that assay. Turning to `C=C(C)C(=O)O[C@H]1CC2=C[C@H](C/C=C\[C@H]3OC(=O)C(=C)[C@H]13)OC2=O` [19a], the results for the IC50 in series [1] and in series [2] were 33 µM and 58 µM, respectively.

On to `C#CCC[C@H](OC(=O)C(=C)C)[C@H]1C(=C)C(=O)O[C@@H]1c1ccccc1` [24c], for which, in series [3], the “cytotoxicity rank among alkyne-tagged analogues 24” value was “highest cytotoxicity”.
